# Results reported in US20250314644A1, “METHODS COMPRISING DETECTION OF ADP-HEPTOSE” (CHILDREN'S HOSPITAL MEDICAL CENTER, priority 2023, published 2025).
# System: Dnmt3a^WT cells
# Assay: RNA-sequencing of HSPCs treated in vitro with ADP-heptose or H2O for 90 minutes
# Format: cell-based, mouse
# Conditions: Dnmt3a^WT cells, vs H2O
smiles,measurement,value
"Nc1ncnc2c1ncn2[C@@H]1O[C@H](COP(=O)(O)OP(=O)(O)O[C@@H]2O[C@H]([C@H](O)CO)[C@@H](O)[C@H](O)[C@@H]2O)[C@@H](O)[C@H]1O [ADP-heptose, ADP-D-glycero-β-D-manno-heptose]",logFC 2900005J15Rik,0.6052
same,logFC AI607873,0.6683
same,logFC Abca1,−0.707
same,logFC Acsbg1,0.5944
same,logFC Adgrg6,−0.645
same,logFC Akap12,−1.955
same,logFC Akr1c18,0.7051
same,logFC Alpk2,1.196
same,logFC Aoc1,2.048
same,logFC Arg1,0.7872
same,logFC Arl5c,−0.704
same,logFC Arntl,−0.87
same,logFC Asb2,1.407
same,logFC Atoh8,0.7783
same,logFC Azin2,0.6183
same,logFC B3galt5,0.9015
same,logFC Bach2,−0.675
same,logFC Bcl2a1b,0.925
same,logFC Bcl2a1d,0.6551
same,logFC Bhlha15,−0.596
same,logFC Blk,−1.578
same,logFC Blnk,−1.446
same,logFC Cacna1f,0.7515
same,logFC Ccdc63,−0.697
same,logFC Ccdc85c,0.7217
same,logFC Ccl5,1.104
same,logFC Ccl17,2.045
same,logFC Ccl22,0.7001
same,logFC Ccl24,1.365
same,logFC Cd19,−1.847
same,logFC Cd40,0.6226
same,logFC Cd74,0.82
same,logFC Cd79a,−1.818
same,logFC Cd83,1.204
same,logFC Cecr2,−1.929
same,logFC Chst3,−1.597
same,logFC Cmpk2,0.7001
same,logFC Cplx2,−1.36
same,logFC Cx3cl1,0.9782
same,logFC Cxc12,−1.129
same,logFC Cxcl3,−0.91
same,logFC Cyp4f17,0.6547
same,logFC Dact3,0.6573
same,logFC Dcstamp,0.6406
same,logFC Ddx60,0.7796
same,logFC Dhx58,0.8261
same,logFC Dntt,−2.827
same,logFC Dock9,−0.589
same,logFC Dsp,−0.701
same,logFC Ebf1,−2.106
same,logFC Ednrb,−0.653
same,logFC Efnb2,0.9402
same,logFC Egr3,0.785
same,logFC Eno2,0.6638
same,logFC Epsti1,0.6192
same,logFC Fam129c,−0.677
same,logFC Fam132b,−0.657
same,logFC Fktn,−0.609
same,logFC Gimap8,0.7417
same,logFC Gm13152,−0.827
same,logFC Gpr27,0.7663
same,logFC Grap,0.7694
same,logFC Grasp,0.5879
same,logFC Grin2c,0.9953
same,logFC Grtp1,−0.628
same,logFC Gstt1,1.055
same,logFC Gzmc,2.215
same,logFC H2-Aa,0.9618
same,logFC H2-Ab1,0.9351
same,logFC H2-DMb2,0.7028
same,logFC H2-Eb1,1.049
same,logFC Hgfac,0.647
same,logFC Hist1h2bj,1.326
same,logFC Hist1h3c,0.7275
same,logFC Hist1h3e,1.345
same,logFC Hist1h4d,0.8341
same,logFC Hivep2,0.787
same,logFC Hivep3,−0.682
same,logFC Hmga1,0.812
same,logFC Hsh2d,0.6798
same,logFC Htr7,0.9558
same,logFC I113,1.008
same,logFC Ifi27l2a,0.8565
same,logFC Ifi44,0.8977
same,logFC Ifi204,0.7452
same,logFC Ifit1,1.338
same,logFC Ifit3,1.739
same,logFC Ifit3b,1.88
same,logFC Igll1,−2.359
same,logFC Il1a,−1.749
same,logFC Il1b,−1.155
same,logFC Il6,0.8099
same,logFC Irf7,1.151
same,logFC Irg1,−0.846
